Test results: patent US12570683B2, “Polymorphic form of reduced beta-nicotinamide mononucleotide disodium salt, and preparation method therefor and use thereof” (EFFEPHARM (SHANGHAI) CO., LTD., priority 2022, dated 2026)

What was measured:
Assay type in all cases: physicochemical
[1] = Exposure in air at 2-8° C., relative humidity 70-80% (crystal form transformation by absorbing water); conditions: RH 70-80%
Excerpt: Moisture (KF) determination method: MC-2000 automatic micro-moisture tester from Min Measure Instrument and Equipment (Xiamen) Co., Ltd. and Karl Fischer reagent from Nanjing Chemical Reagent Co., Ltd.

[2] = Stability, placed openly in stability chamber at 25° C. and 65% RH; conditions: open
[3] = Stability, placed openly in stability chamber at 4° C. and 75% RH; conditions: open
[4] = 0 day, listed as amorphous solid, disodium salt
[5] = 1 day, listed as amorphous solid, disodium salt

NC(=O)C1=CN([C@@H]2O[C@H](COP(=O)([O-])[O-])[C@@H](O)[C@H]2O)C=CC1.[Na+].[Na+] [crystal form B, reduced β-nicotinamide mononucleotide disodium salt]
Moisture (KF) after exposure ([1]; after 30 days): 29%
Resulting solid crystal form ([1]; after 30 days): crystal form A

NC(=O)C1=CN([C@@H]2O[C@H](COP(=O)([O-])[O-])[C@@H](O)[C@H]2O)C=CC1.[Na+].[Na+] [Crystal form A, reduced β-nicotinamide mononucleotide disodium salt]
NMNH disodium salt purity (HPLC, % area) ([2]; 0 day, disodium salt): 99.33 % area
NMNH disodium salt purity (HPLC, % area) ([2]; 0 day, listed as crystal form A, disodium salt): 99.33 % area
NMNH disodium salt purity (HPLC, % area) ([2]; 1 day, disodium salt): 99.27 % area
NMNH disodium salt purity (HPLC, % area) ([2]; 5 day): 99.01 % area
Appearance of solid ([2]; 5 days): still a crystal powder
NMNH disodium salt purity (HPLC, % area) ([3]; 0 day, disodium salt): 99.33 % area
NMNH disodium salt purity (HPLC, % area) ([3]; 5 day, disodium salt): 99.35 % area
NMNH disodium salt purity (HPLC, % area) ([3]; 18 day, disodium salt): 99.33 % area
NMNH disodium salt purity (HPLC, % area) ([3]; 18 day, listed as crystal form A, disodium salt): 99.33 % area
Appearance of solid ([3]; 18 days, disodium salt): still a crystal powder

NC(=O)C1=CN([C@@H]2O[C@H](COP(=O)([O-])[O-])[C@@H](O)[C@H]2O)C=CC1.[Na+].[Na+] [Amorphous Solids, reduced β-nicotinamide mononucleotide disodium salt]
Appearance of solid ([2]; 0 day): (powders)
NMNH disodium salt purity (HPLC, % area) ([2]; 0 day, disodium salt): 99.30 % area
NMNH disodium salt purity (HPLC, % area) [2, 4]: 99.30 % area
Appearance of solid ([2]; 1 day, disodium salt): (oil)
NMNH disodium salt purity (HPLC, % area) ([2]; 1 day, disodium salt): 99.02 % area
Appearance of solid [2, 5]: the powder absorbed water and turned into an oil
NMNH disodium salt purity (HPLC, % area) [2, 5]: 99.02 % area
NMNH disodium salt purity (HPLC, % area) ([3]; 0 day, disodium salt): 99.30 % area
NMNH disodium salt purity (HPLC, % area) [3, 4]: 99.30 % area
NMNH disodium salt purity (HPLC, % area) ([3]; 5 day, disodium salt): 99.26 % area
NMNH disodium salt purity (HPLC, % area) ([3]; 5 day, listed as amorphous solid, disodium salt): 99.26 % area
Appearance of solid ([3]; 5 days): the powder solid absorbed water and became viscous to form a mass
NMNH disodium salt purity (HPLC, % area) ([3]; 18 day, disodium salt): 99.17 % area
NMNH disodium salt purity (HPLC, % area) ([3]; 18 day, listed as amorphous solid, disodium salt): 99.17 % area
Appearance of solid ([3]; 18 days, disodium salt): the color became darker

NC(=O)C1=CN([C@@H]2O[C@H](COP(=O)([O-])[O-])[C@@H](O)[C@H]2O)C=CC1.[Na+].[Na+] [crystal form C, reduced β-nicotinamide mononucleotide disodium salt]
Moisture (KF) after exposure ([1]; after 24 hours): 24%
Resulting solid crystal form ([1]; after 24 hours): crystal form A
